{
  "source": "paper PMC5218480",
  "about": "(PLoS ONE, 2017)",
  "test_system": "MV-4-11 cells",
  "assay": "Gene expression microarray analysis (Affymetrix PrimeView) and GSEA",
  "type": "cell-based, human",
  "set-up": "RFU PODN (11730768_x_at) / Fold change /veh PODN (11730768_x_at) / RFU LINC00158 (11744669_a_at) / Fold change /veh LINC00158 (11744669_a_at) / RFU DUSP10 (11751237_a_at) / Fold change /veh DUSP10 (11751237_a_at) / RFU ID3 (11757404_x_at) / Fold change /veh ID3 (11757404_x_at) / RFU PLEKHG5 (11737974_s_at) / Fold change /veh PLEKHG5 (11737974_s_at) / RFU LRRC4B (11730491_at) / Fold change /veh LRRC4B (11730491_at) / RFU GIMAP4 (11747438_a_at) / Fold change /veh GIMAP4 (11747438_a_at) / RFU KRT8 (11758183_x_at) / Fold change /veh KRT8 (11758183_x_at) / RFU CNN1 (11734310_a_at) / Fold change /veh CNN1 (11734310_a_at) / RFU VPS37D (11726825_at) / Fold change /veh VPS37D (11726825_at) / RFU C10orf10 (11716522_x_at) / Fold change /veh C10orf10 (11716522_x_at) / RFU KIR2DL2 /// KIR2DL4 /// KIR2DL5A /// KIR2DL5B /// KIR2DS1 /// KIR2DS2 /// KIR2DS3 /// KIR2DS4 /// KIR3DL3 /// KIR3DL3 /// KIR3DS1 (11738374_at) / Fold change /veh KIR2DL2 /// KIR2DL4 /// KIR2DL5A /// KIR2DL5B /// KIR2DS1 /// KIR2DS2 /// KIR2DS3 /// KIR2DS4 /// KIR3DL3 /// KIR3DL3 /// KIR3DS1 (11738374_at) / RFU C1QL1 (11718748_at) / Fold change /veh C1QL1 (11718748_at) / RFU TMPRSS4 (11747572_a_at) / Fold change /veh TMPRSS4 (11747572_a_at) / RFU HAMP (11756126_x_at) / Fold change /veh HAMP (11756126_x_at) / RFU RNFT2 (11725882_a_at) / Fold change /veh RNFT2 (11725882_a_at) / RFU NR4A2 (11747474_a_at) / Fold change /veh NR4A2 (11747474_a_at) / RFU ABCC12 (11746883_a_at) / Fold change /veh ABCC12 (11746883_a_at) / RFU TMEM136 (11760407_x_at) / Fold change /veh TMEM136 (11760407_x_at) / RFU CLDN22 /// WWC2 (11732394_at) / Fold change /veh CLDN22 /// WWC2 (11732394_at) / RFU HLA-DPB1 (11760878_x_at) / Fold change /veh HLA-DPB1 (11760878_x_at) / RFU SPINT1 (11716480_a_at) / Fold change /veh SPINT1 (11716480_a_at) / RFU GAP43 (11754022_s_at) / Fold change /veh GAP43 (11754022_s_at) / RFU A4GNT (11735810_at) / Fold change /veh A4GNT (11735810_at) / RFU PRB3 (11715151_x_at) / Fold change /veh PRB3 (11715151_x_at) / RFU TUBB4B (11761932_at) / Fold change /veh TUBB4B (11761932_at) / RFU CAPN14 (11732068_a_at) / Fold change /veh CAPN14 (11732068_a_at) / RFU TMCC2 (11721928_a_at) / Fold change /veh TMCC2 (11721928_a_at) / RFU IRGQ (11745062_a_at) / Fold change /veh IRGQ (11745062_a_at) / RFU FAM174B (11720279_a_at) / Fold change /veh FAM174B (11720279_a_at) / RFU TMPRSS4 (11748680_a_at) / Fold change /veh TMPRSS4 (11748680_a_at) / RFU FAM212B (11763350_a_at) / Fold change /veh FAM212B (11763350_a_at) / RFU PLEKHG5 (11743358_a_at) / Fold change /veh PLEKHG5 (11743358_a_at) / RFU ZSCAN30 (11745921_a_at) / Fold change /veh ZSCAN30 (11745921_a_at) / RFU CMKLR1 (11741424_a_at) / Fold change /veh CMKLR1 (11741424_a_at) / RFU LOC101060620 /// MAPK8IP1 (11723275_at) / Fold change /veh LOC101060620 /// MAPK8IP1 (11723275_at) / RFU SPTSSB (11747773_x_at) / Fold change /veh SPTSSB (11747773_x_at) / RFU PRSS12 (11739890_at) / Fold change /veh PRSS12 (11739890_at) / RFU BIN1 (11741810_x_at) / Fold change /veh BIN1 (11741810_x_at) / RFU WNT11 (11732464_a_at) / Fold change /veh WNT11 (11732464_a_at) / RFU C10orf10 (11716521_a_at) / Fold change /veh C10orf10 (11716521_a_at) / RFU C5orf56 (11738089_at) / Fold change /veh C5orf56 (11738089_at) / RFU CYB561 (11721691_x_at) / Fold change /veh CYB561 (11721691_x_at) / RFU ANKRD19P (11752326_a_at) / Fold change /veh ANKRD19P (11752326_a_at) / RFU OR2T12 /// OR2T33 /// OR2T8 (11738714_s_at) / Fold change /veh OR2T12 /// OR2T33 /// OR2T8 (11738714_s_at) / RFU VCAN (11748164_a_at) / Fold change /veh VCAN (11748164_a_at) / RFU JSRP1 (11732532_at) / Fold change /veh JSRP1 (11732532_at) / RFU KRTAP10-11 (11738290_x_at) / Fold change /veh KRTAP10-11 (11738290_x_at) / RFU MYO3A (11730013_a_at) / Fold change /veh MYO3A (11730013_a_at) / RFU EBF3 (11725865_a_at) / Fold change /veh EBF3 (11725865_a_at) / RFU CAMK2N1 (11719241_x_at) / Fold change /veh CAMK2N1 (11719241_x_at) / RFU C5orf56 (11738088_a_at) / Fold change /veh C5orf56 (11738088_a_at) / RFU OLFML3 (11715873_a_at) / Fold change /veh OLFML3 (11715873_a_at) / RFU LOC100653217 /// NTM (11731650_a_at) / Fold change /veh LOC100653217 /// NTM (11731650_a_at) / RFU MAPK11 (11762145_a_at) / Fold change /veh MAPK11 (11762145_a_at) / RFU FIZ1 (11724087_x_at) / Fold change /veh FIZ1 (11724087_x_at) / RFU OASL (11726364_x_at) / Fold change /veh OASL (11726364_x_at) / RFU SOX15 (11748057_x_at) / Fold change /veh SOX15 (11748057_x_at) / RFU CD79A (11719716_a_at) / Fold change /veh CD79A (11719716_a_at) / RFU HIST1H1D (11736915_at) / Fold change /veh HIST1H1D (11736915_at) / RFU CASKIN2 (11723855_a_at) / Fold change /veh CASKIN2 (11723855_a_at) / RFU LOC730098 (11760151_x_at) / Fold change /veh LOC730098 (11760151_x_at) / RFU OR4N2 (11742367_at) / Fold change /veh OR4N2 (11742367_at) / RFU PRRT2 (11749266_a_at) / Fold change /veh PRRT2 (11749266_a_at) / RFU SNX32 (11753110_a_at) / Fold change /veh SNX32 (11753110_a_at) / RFU CDHR5 (11726645_a_at) / Fold change /veh CDHR5 (11726645_a_at) / RFU RCAN1 (11760418_a_at) / Fold change /veh RCAN1 (11760418_a_at) / RFU FAM167A (11723789_a_at) / Fold change /veh FAM167A (11723789_a_at) / RFU FAM26E (11764081_at) / Fold change /veh FAM26E (11764081_at) / RFU ISYNA1 (11749810_s_at) / Fold change /veh ISYNA1 (11749810_s_at) / RFU ACY1 (11761880_at) / Fold change /veh ACY1 (11761880_at) / RFU 11764098_at / Fold change /veh 11764098_at / RFU SAMD14 (11745864_x_at) / Fold change /veh SAMD14 (11745864_x_at) / RFU NPB (11741838_a_at) / Fold change /veh NPB (11741838_a_at) / RFU TMPRSS6 (11731388_a_at) / Fold change /veh TMPRSS6 (11731388_a_at) / RFU KRTAP10-2 (11738614_at) / Fold change /veh KRTAP10-2 (11738614_at) / RFU ARHGAP8 /// PRR5-ARHGAP8 (11727945_x_at) / Fold change /veh ARHGAP8 /// PRR5-ARHGAP8 (11727945_x_at) / RFU KRTAP5-7 /// NADSYN1 (11734609_at) / Fold change /veh KRTAP5-7 /// NADSYN1 (11734609_at) / RFU RASL12 (11751679_a_at) / Fold change /veh RASL12 (11751679_a_at) / RFU CDKN2B (11736163_a_at) / Fold change /veh CDKN2B (11736163_a_at) / RFU PRF1 (11729649_at) / Fold change /veh PRF1 (11729649_at) / RFU, ZNF638 /// ZNF638-IT1 / Fold change vs veh, ZNF638 /// ZNF638-IT1 / RFU, PANK3 / Fold change vs veh, PANK3 / RFU, SH3YL1 / Fold change vs veh, SH3YL1 / RFU, ZEB2 / Fold change vs veh, ZEB2 / RFU, NRIP1 / Fold change vs veh, NRIP1 / RFU, PTTG1IP / Fold change vs veh, PTTG1IP / RFU, CAPN2 / Fold change vs veh, CAPN2 / RFU, MED14 / Fold change vs veh, MED14 / RFU, SNORA58 / Fold change vs veh, SNORA58 / RFU, C1orf63 / Fold change vs veh, C1orf63 / RFU, LRRFIP1 / Fold change vs veh, LRRFIP1 / RFU, NDUFAF7 / Fold change vs veh, NDUFAF7 / RFU, SLC12A2 / Fold change vs veh, SLC12A2 / RFU, IBTK / Fold change vs veh, IBTK / RFU, ESF1 / Fold change vs veh, ESF1 / Fold change vs veh, TMEM50B / RFU, TAOK1 / Fold change vs veh, TAOK1 / RFU, ACBD3 / Fold change vs veh, ACBD3 / RFU, TMA16 / Fold change vs veh, TMA16 / RFU, RWDD3 / Fold change vs veh, RWDD3 / RFU, BCAT1 / Fold change vs veh, BCAT1 / RFU, EDEM3 / Fold change vs veh, EDEM3 / RFU, TMEM33 / Fold change vs veh, TMEM33 / RFU, WDR75 / Fold change vs veh, WDR75 / RFU, AHCTF1 / Fold change vs veh, AHCTF1 / RFU, TFRC / Fold change vs veh, TFRC / RFU, ZDHHC17 / Fold change vs veh, ZDHHC17 / RFU, NOM1 / Fold change vs veh, NOM1 / RFU, ARL8B / Fold change vs veh, ARL8B / RFU, ZBTB11 / Fold change vs veh, ZBTB11 / RFU, TAMM41 / Fold change vs veh, TAMM41 / RFU, KIAA1704 /// LOC100996395 / Fold change vs veh, KIAA1704 /// LOC100996395 / RFU, ING1 / Fold change vs veh, ING1 / RFU, TRMT61B / Fold change vs veh, TRMT61B / RFU, FUBP3 / Fold change vs veh, FUBP3 / RFU, TP53 / Fold change vs veh, TP53 / RFU, TNKS2 / Fold change vs veh, TNKS2 / RFU, ZFP14 / Fold change vs veh, ZFP14 / RFU, ACTR2 / Fold change vs veh, ACTR2 / RFU, PPP3R1 / Fold change vs veh, PPP3R1 / RFU, PIK3R1 / Fold change vs veh, PIK3R1 / RFU, HNRNPA1 / Fold change vs veh, HNRNPA1 / RFU, RNF170 / Fold change vs veh, RNF170 / RFU, ZNF28 / Fold change vs veh, ZNF28 / RFU, RNGTT / Fold change vs veh, RNGTT / RFU, OGT / Fold change vs veh, OGT / RFU, BRD1 / Fold change vs veh, BRD1 / RFU, MARS / Fold change vs veh, MARS / RFU, ZNF655 / Fold change vs veh, ZNF655 / RFU, FAHD1 / Fold change vs veh, FAHD1 / RFU, BDP1 / Fold change vs veh, BDP1 / RFU, LRRCC1 / Fold change vs veh, LRRCC1 / RFU, ARID1A / Fold change vs veh, ARID1A / RFU, ZNF146 / Fold change vs veh, ZNF146 / RFU, ZNF330 / Fold change vs veh, ZNF330 / RFU, GPN3 / Fold change vs veh, GPN3 / RFU, C9orf123 / Fold change vs veh, C9orf123 / RFU, N4BP2L2 / Fold change vs veh, N4BP2L2 / RFU, ARFIP1 / Fold change vs veh, ARFIP1 / RFU, FAM179B / Fold change vs veh, FAM179B / RFU, BCL10 / Fold change vs veh, BCL10 / RFU, UHRF1BP1L / Fold change vs veh, UHRF1BP1L / RFU, BET1 / Fold change vs veh, BET1 / RFU, CNOT2 / Fold change vs veh, CNOT2 / RFU, ZNF268 / Fold change vs veh, ZNF268 / Fold change vs veh, ZNF507 / RFU, DGCR2 / Fold change vs veh, DGCR2 / RFU, WDSUB1 / Fold change vs veh, WDSUB1 / Fold change vs veh, HSP90B1 /// MIR3652 / RFU, ADSS / Fold change vs veh, ADSS / RFU, GK / Fold change vs veh, GK / RFU, ZNF148 / Fold change vs veh, ZNF148 / RFU, TAF9 / Fold change vs veh, TAF9 / RFU, SLC1A5 / Fold change vs veh, SLC1A5 / RFU, SLMO2 / Fold change vs veh, SLMO2 / RFU, ABCC4 / Fold change vs veh, ABCC4 / RFU, LOC101060439 /// RAP1B / Fold change vs veh, LOC101060439 /// RAP1B / RFU, RFX7 / Fold change vs veh, RFX7 / RFU, GTPBP10 / Fold change vs veh, GTPBP10 / RFU, CNEP1R1 / Fold change vs veh, CNEP1R1 / RFU, BIVM-ERCC5 /// ERCC5 / Fold change vs veh, BIVM-ERCC5 /// ERCC5 / RFU, ILF3 / Fold change vs veh, ILF3 / RFU 11762660_at / Fold change /veh 11762660_at / RFU VCAN (11757783_s_at) / Fold change /veh VCAN (11757783_s_at) / RFU DDX43 (11728927_at) / Fold change /veh DDX43 (11728927_at) / RFU KRT8 (11758188_x_at) / Fold change /veh KRT8 (11758188_x_at) / RFU NKD1 (11759106_at) / Fold change /veh NKD1 (11759106_at) / RFU SRD5A1 (11742802_a_at) / Fold change /veh SRD5A1 (11742802_a_at) / RFU TPSAB1 /// TPSB2 (11721975_s_at) / Fold change /veh TPSAB1 /// TPSB2 (11721975_s_at) / RFU GSTM3 (11746129_a_at) / Fold change /veh GSTM3 (11746129_a_at) / RFU IL23R (11737362_x_at) / Fold change /veh IL23R (11737362_x_at) / RFU TMEM51 (11727254_a_at) / Fold change /veh TMEM51 (11727254_a_at) / RFU PIWIL2 (11732686_x_at) / Fold change /veh PIWIL2 (11732686_x_at) / RFU ORM1 (11744905_x_at) / Fold change /veh ORM1 (11744905_x_at) / RFU CCDC152 (11743942_at) / Fold change /veh CCDC152 (11743942_at) / RFU ECM1 (11717891_a_at) / Fold change /veh ECM1 (11717891_a_at) / RFU IL23R (11748794_a_at) / Fold change /veh IL23R (11748794_a_at) / RFU TNFAIP8L3 (11732012_x_at) / Fold change /veh TNFAIP8L3 (11732012_x_at) / RFU MBOAT4 (11741988_at) / Fold change /veh MBOAT4 (11741988_at) / RFU 11764193_at / Fold change /veh 11764193_at / RFU TMEM53 (11763286_at) / Fold change /veh TMEM53 (11763286_at) / RFU MAGEB2 (11727129_at) / Fold change /veh MAGEB2 (11727129_at) / RFU TMEM200A (11744735_a_at) / Fold change /veh TMEM200A (11744735_a_at) / RFU CCDC152 (11751479_a_at) / Fold change /veh CCDC152 (11751479_a_at) / RFU FAM211A (11726209_a_at) / Fold change /veh FAM211A (11726209_a_at) / RFU RGS16 (11746705_a_at) / Fold change /veh RGS16 (11746705_a_at) / RFU VCAN (11755009_s_at) / Fold change /veh VCAN (11755009_s_at) / RFU RHOB (11743442_s_at) / Fold change /veh RHOB (11743442_s_at) / RFU RGS16 (11720943_a_at) / Fold change /veh RGS16 (11720943_a_at) / RFU RGS16 (11720944_at) / Fold change /veh RGS16 (11720944_at) / RFU, VPS4B / Fold change vs veh, VPS4B / RFU, CREB1 / Fold change vs veh, CREB1 / RFU, DNAJC13 / Fold change vs veh, DNAJC13 / RFU, GNAQ / Fold change vs veh, GNAQ / RFU, CDK5R1 / Fold change vs veh, CDK5R1 / RFU, ZRANB3 / Fold change vs veh, ZRANB3 / RFU, CUL4A / Fold change vs veh, CUL4A / RFU, CCNY / Fold change vs veh, CCNY / RFU, UFL1 / Fold change vs veh, UFL1 / RFU, COG3 / Fold change vs veh, COG3 / RFU, DIAPH2 / Fold change vs veh, DIAPH2 / RFU, SKA2 / Fold change vs veh, SKA2 / RFU, AFF3 / Fold change vs veh, AFF3 / RFU, LMF1 / Fold change vs veh, LMF1 / RFU, IPO11 / Fold change vs veh, IPO11 / RFU, DFFB / Fold change vs veh, DFFB / RFU, FOXP1 / Fold change vs veh, FOXP1 / RFU, CARD8 / Fold change vs veh, CARD8 / RFU, STRN3 / Fold change vs veh, STRN3 / RFU, ADK / Fold change vs veh, ADK / RFU, RASSF2 / Fold change vs veh, RASSF2 / RFU, WIPF1 / Fold change vs veh, WIPF1 / RFU, LARP1B / Fold change vs veh, LARP1B / RFU, RASA1 / Fold change vs veh, RASA1 / RFU, RB1 / Fold change vs veh, RB1 / RFU, PPFIA1 / Fold change vs veh, PPFIA1 / RFU, MAT2A / Fold change vs veh, MAT2A / RFU, CCT5 / Fold change vs veh, CCT5 / RFU, WDR92 / Fold change vs veh, WDR92 / RFU, CUX1 / Fold change vs veh, CUX1 / RFU, TTC7A / Fold change vs veh, TTC7A / RFU, TMEM135 / Fold change vs veh, TMEM135 / RFU, DEPTOR / Fold change vs veh, DEPTOR / RFU, CPM / Fold change vs veh, CPM / RFU, DNAJB6 / Fold change vs veh, DNAJB6 / RFU, CACNA2D3 / Fold change vs veh, CACNA2D3 / RFU, DTX4 / Fold change vs veh, DTX4 / RFU, TFCP2 / Fold change vs veh, TFCP2 / RFU, GMCL1 /// GMCL1P1 / Fold change vs veh, GMCL1 /// GMCL1P1 / RFU, AEBP2 / Fold change vs veh, AEBP2 / RFU, SNHG1 /// SNORD22 /// SNORD25 /// SNORD26 /// SNORD27 /// SNORD28 /// SNORD29 /// SNORD31 / Fold change vs veh, SNHG1 /// SNORD22 /// SNORD25 /// SNORD26 /// SNORD27 /// SNORD28 /// SNORD29 /// SNORD31 / Fold change (Aza/veh), C12orf56 (ProbeSet 11735607_a_at) / Fold change (ACY-1035/veh), C12orf56 (ProbeSet 11735607_a_at) / Fold change (Aza/veh), FGFR1OP (ProbeSet 11751329_s_at) / Fold change (ACY-1035/veh), FGFR1OP (ProbeSet 11751329_s_at) / Fold change (Aza/veh), VPS36 (ProbeSet 11739960_a_at) / Fold change (ACY-1035/veh), VPS36 (ProbeSet 11739960_a_at) / RFU SYPL1 (11715823_x_at) / Fold change /veh SYPL1 (11715823_x_at) / RFU IGFBP7 (11715501_s_at) / Fold change /veh IGFBP7 (11715501_s_at) / RFU REEP3 (11722064_at) / Fold change /veh REEP3 (11722064_at) / RFU IGLL1 (11728026_x_at) / Fold change /veh IGLL1 (11728026_x_at): dose or concentration left out as unconfirmed",
  "conditions": "MV-4-11 cells, 48 hours",
  "data": [
    {"smiles": "Nc1ccc(-c2cccs2)cc1NC(=O)c1ccc2c(c1)cc(C1CC1)n2CCN1CCOCC1", "note": "[ACY-1035]", "values": [
      {"measurement": "Fold change /veh FAM212B (11763350_a_at)", "value": 1.09}
    ]}
  ]
}
